# Patent US8455469B2, “Use of norgestimate as a selective inhibitor of TRPC3, TRPC6 and TRPC7 ion channels” (Sanofi, priority 2007, dated 2013)
# How the values were obtained:
# TRPC6 = biological target: T1, TRPC6 (Homo sapiens, UniProt Q9Y210); experiment: FLIPR Ca2+ influx measurement, OAG-activated TRPC6 HEK293 cells; assay type: cell-based; details: 30 μM OAG
# T1 construct: expressed in transfected cells; host or cells: HEK293 (inducible expression)
# T1 sequence (Q9Y210 1-931): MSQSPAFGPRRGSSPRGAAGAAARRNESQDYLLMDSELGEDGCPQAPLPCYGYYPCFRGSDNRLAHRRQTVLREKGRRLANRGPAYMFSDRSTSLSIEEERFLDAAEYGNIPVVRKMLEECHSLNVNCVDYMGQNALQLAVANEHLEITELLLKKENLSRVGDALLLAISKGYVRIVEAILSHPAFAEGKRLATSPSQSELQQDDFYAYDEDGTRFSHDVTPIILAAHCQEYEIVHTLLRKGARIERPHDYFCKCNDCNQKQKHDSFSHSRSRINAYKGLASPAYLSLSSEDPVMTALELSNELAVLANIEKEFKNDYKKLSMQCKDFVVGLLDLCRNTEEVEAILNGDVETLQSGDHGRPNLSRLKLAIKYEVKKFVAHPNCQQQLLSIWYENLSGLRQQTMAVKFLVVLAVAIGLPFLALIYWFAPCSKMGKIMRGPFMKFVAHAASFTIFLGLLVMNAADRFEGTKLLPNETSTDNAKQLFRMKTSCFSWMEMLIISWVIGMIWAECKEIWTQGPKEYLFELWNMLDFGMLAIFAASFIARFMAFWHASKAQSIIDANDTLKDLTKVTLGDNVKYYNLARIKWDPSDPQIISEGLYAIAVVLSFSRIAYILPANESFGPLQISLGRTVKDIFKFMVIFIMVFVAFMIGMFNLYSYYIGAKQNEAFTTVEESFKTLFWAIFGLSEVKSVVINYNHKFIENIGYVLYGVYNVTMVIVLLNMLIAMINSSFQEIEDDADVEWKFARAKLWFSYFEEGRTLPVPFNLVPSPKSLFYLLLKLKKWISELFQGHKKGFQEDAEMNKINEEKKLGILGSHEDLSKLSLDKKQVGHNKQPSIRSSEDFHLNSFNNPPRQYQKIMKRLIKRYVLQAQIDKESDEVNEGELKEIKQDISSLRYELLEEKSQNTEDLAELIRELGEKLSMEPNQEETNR
# Excerpt: In general, cells are provided which express a TRPC channel. Such cells can be produced using genetic methods known to a person skilled in the art. After having induced the expression of the TRPC channel, cells are usually plated into e.g. microtiter plates and grown. Usually the cells grow at the bottom of multiwell plates and are fixed. Thereafter, the cells are generally washed and loaded with a dye in a suitable loading buffer, preferably with a fluorescent dye such as fluo4am. After having removed the loading buffer, the cells are incubated with the test compound or modulator, in particular with a biochemical or chemical test compound as described above, e.g. in the form of a chemical compound library. Ca^2+ measurements can be carried out using e.g. a Fluorescence Imaging Plate Reader (FLIPR). To stimulate Ca^2+ influx through the TRPC channel a channel activator such as OAG should generally be applied.
# TRPC3 and TRPC6 were directly activated by application of oleoyl-2-acetyl-sn-glycerol (OAG), a membrane permeable diacylglycerol analogue.
# (A, C) Time-dependent changes of intracellular Ca^2+ concentration ([Ca^2+]i) of fluo-4-loaded induced TRPC3 HEK293 cells (A) and TRPC6 HEK293 cells (C). […] Measurements were performed in 96er well plates using FLIPR (Molecular Devices, Sunnyvale, Calif., USA) (B, D) Determination of norgestimates IC50 value on TRPC3 (B) and TRPC6 (D). […]
# [1] = test system: native heteromeric TRPC6/7 channels; experiment: Whole-cell patch clamp of AVP-stimulated A7r5 cells; assay type: cell-based, rat; details: 10 μM
# Protocol: The A7r5 cell line (derived from rat thoracic aorta smooth muscle cells) is a model system to investigate endogenous TRPC channels (Jung et al., 2002; Soboloff et al., 2005). The channels were indirectly stimulated by Arg^8-vasopressin (AVP), a vasoconstricting peptide that activates the endogenous vasopressin V1A receptor in these cells (Thibonnier et al., 1991).
# Perfusion of A7r5 cells with 100 nM AVP stimulated non-selective cationic currents that bore the biophysical hallmarks of TRPC channels (FIG. 5). […] When 10 μM norgestimate were applied to AVP-stimulated A7r5 cells, 86.5±6.0% (n=8) of the current measured at resting membrane potential were blocked and this effect was reversible (FIG. 5).
# Effect of 10 μM norgestimate (NG) on whole-cell currents evoked by 100 nM AVP on A7r5 cells in standard extracellular solution (200 μM [Ca^2+]o). Whole cell currents recorded at −60 mV (left panels) and the corresponding I-V relationships are shown (right panels). The curves were obtained during voltage ramps from −100 to +80 mV. L-type voltage-gated Ca^2+ channels were blocked by 5 μM nimodipine (ND) during the whole experiment.
# [2] = test system: TRPC3/6/7 subfamily members versus TRPC4/5 subfamily members; experiment: Fluorometric measurements, potency compared between TRPC subfamilies; assay type: cell-based; details: based on calculated inhibition by 10 μM norgestimate
# Protocol: The 4-fold more potency of norgestimate on TRPC3/6/7 subfamily members than on TRPC4/5 subfamily members was evaluated with fluorometric measurements and based on the calculated inhibition by 10 μM norgestimate.
smiles,measurement,setting,value
"C#C[C@]1(OC(C)=O)CC[C@H]2[C@@H]3CCC4=C/C(=N/O)CC[C@@H]4[C@H]3CC[C@@]21CC [norgestimate, D-17β-acetoxy-B-ethyl-17α ethinyl-gon-4-en-3-one oxime]",IC50,"TRPC6; FLIPR, n=4",5.2 ± 0.4 µM
same,TRPC6-mediated Ca2+ influx following application of OAG,TRPC6; cells preincubated with 30 μM norgestimate,strongly reduced
same,reversibility of current block in A7r5 cells,[1],reversible
same,AVP-stimulated current blocked in A7r5 cells,"[1]; 100 nM AVP, resting membrane potential (-60 mV), n=8",86.5±6.0%
same,fold more potent on TRPC3/6/7 subfamily members than on TRPC4/5 subfamily members,[2],at least 4 fold
